Measurements: patent publication US20240059675A1, “PIPERIDINYLPYRIDINYLCARBONITRILE DERIVATIVES AS INHIBITORS OF GLUTAMINYL-PEPTIDE CYCLOTRANSFERASE AND GLUTAMINYL-PEPTIDE CYCLOTRANSFERASE LIKE PROTEIN” (Boehringer Ingelheim International GmbH, priority 2022, published 2024)

Tests used:
[1] = test system: SIRPα signalling induced by Raji cells; assay: Assay B: SIRPα signalling assay using Raji cells; format: cell-based; conditions: Homo sapiens, 48 h compound incubation, Jurkat PathHunter SIRPαV1 reporter cells, read-out: Inhibition of SIRPα signalling induced by Raji cells: IC50
Experimental: (§1) Two cell types are independently used: the Raji cell line (lymphoblast-like human cell line derived from B lymphocytes from a Burkitt's lymphoma patient in 1963) and A549 cells (adenocarcinomic human alveolar basal epithelial cells).
(§2) Test compounds were dissolved in 100% DMSO and serially diluted into a white 384-well microtiter cell culture plate (PerkinElmer #60076780 in case of Raji assay; PDL-coated plates Greiner #781945 in case of A549 assay). 5000 Raji cells (ATCC #CC86) or 5000 A549 cells (ATCC #CCL-185) in Assay Complete Cell Plating reagent 30 (DiscoverX 93-0563R30B) were added per well. The assay plate was incubated for 48 h at 37° C., 95% humidity and 5% CO2. 15000 reporter cells (Jurkat PathHunter SIRPαV1, DiscoverX #93-1135C19) were added to each well, and the plate was incubated for 5 h at 37° C., 95% humidity and 5% CO2. Bioassay reagent 1 of the PathHunter Bioassay detection kit (DiscoverX 93-0001) was added to each well of the plate using a multichannel pipette followed by a 15 min incubation at room temperature. Afterwards bioassay reagent 2 was added followed by 60 min incubation at room temperature (incubation in the dark).
(§3) The analysis of the data was performed using the luminescence signal generated by beta-galactosidase in the PathHunter reporter cell line. The luminescence measurement was done using a Pherastar Multi-Mode Reader. Dose-response curves & IC50 data were calculated with 4-parameter sigmoidal dose response formula.

[2] = target: QPCT (Homo sapiens (Human), UniProt Q16769); assay: Assay A: biochemical QPCT activity assay (MALDI-TOF MS, CD47 peptide substrate); conditions: 0.5 nM enzyme, 20 μM CD47 peptide substrate; read-out: Inhibition of QPCT: IC50
Chain of QPCT (Q16769 29-361): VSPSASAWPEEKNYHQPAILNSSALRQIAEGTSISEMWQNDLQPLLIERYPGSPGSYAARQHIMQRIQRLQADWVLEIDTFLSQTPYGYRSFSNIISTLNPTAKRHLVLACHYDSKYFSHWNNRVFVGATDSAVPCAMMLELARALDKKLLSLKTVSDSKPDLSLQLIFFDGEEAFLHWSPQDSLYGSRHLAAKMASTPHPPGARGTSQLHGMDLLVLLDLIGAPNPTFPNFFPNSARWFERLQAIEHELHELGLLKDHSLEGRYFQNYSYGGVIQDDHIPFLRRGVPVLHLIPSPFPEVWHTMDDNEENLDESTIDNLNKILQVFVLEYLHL

[3] = test system: SIRPα signalling induced by A549 cells; assay: Assay B: SIRPα signalling assay using A549 cells; format: cell-based; conditions: Homo sapiens, 48 h compound incubation, Jurkat PathHunter SIRPαV1 reporter cells, read-out: Inhibition of SIRPα signalling induced by A549 cells: IC50
Experimental: as §1, §2, §3

[4] = target: QPCTL (Homo sapiens (Human), UniProt Q9NXS2); assay: Assay A: biochemical QPCTL activity assay (MALDI-TOF MS, CD47 peptide substrate); conditions: 0.5 nM enzyme, 10 μM CD47 peptide substrate; read-out: Inhibition of QPCTL: IC50
Chain of QPCTL (Q9NXS2 whole entry): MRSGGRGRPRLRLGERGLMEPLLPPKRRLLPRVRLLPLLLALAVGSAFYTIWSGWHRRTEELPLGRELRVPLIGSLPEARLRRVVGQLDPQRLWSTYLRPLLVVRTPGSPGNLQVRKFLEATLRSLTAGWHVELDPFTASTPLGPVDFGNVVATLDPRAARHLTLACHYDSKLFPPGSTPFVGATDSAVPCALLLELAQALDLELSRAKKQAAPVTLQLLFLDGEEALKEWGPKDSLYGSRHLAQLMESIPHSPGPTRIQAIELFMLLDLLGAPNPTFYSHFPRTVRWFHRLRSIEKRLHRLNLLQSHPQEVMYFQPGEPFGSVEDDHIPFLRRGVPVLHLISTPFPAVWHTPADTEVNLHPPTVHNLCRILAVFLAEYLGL

[5] = Assay C: permeability in CACO-2 cells; format: in vitro ADME; conditions: human, pH 7.2; for efflux ratio: Caco-2, permeability B-A / permeability A-B; for Papp A→B: Caco-2, apical to basolateral

IC50 [1] [nM]	IC50 [2] [nM]	IC50 [3] [nM]	IC50 [4] [nM]	efflux ratio [5]	Papp A→B [5] [×10⁻⁶ cm/s]	Compound
482	23	112	8	1.4	41	Cn1cnnc1C1(F)CCN(c2c(C#N)ccnc2-c2cnc(F)c(Cl)c2)CC1 [Example 18]
350	13	44	2	14	2	COc1cc(-c2nccc(C#N)c2N2CCC(c3nncn3C)CC2)cnc1F [Example 5]
653	12	103	3	10	0.2	Cn1cnnc1C1(F)CCN(c2c(C#N)ccnc2-c2ccnnc2)CC1 [Example 22]
81		13		15.2	2.5	Cn1cnnc1C1(F)CCN(c2c(C#N)ccnc2-c2cnc3nn(C(C)(C)C(F)(F)F)cc3c2)CC1 [Example 29]
176	5	39	3	2	36	Cn1cnnc1C1(F)CCN(c2c(C#N)ccnc2-c2cnc(F)c(OC3CC3)c2)CC1 [Example 27]
509	10	18	2	6.5	4.9	Cn1cnnc1C1(F)CCN(c2c(C#N)ccnc2-c2cncc(-n3cccn3)c2)CC1 [Example 19]
1610	30	44	10			Cn1cnnc1C1(F)CCN(c2c(C#N)ccnc2-c2cnsc2)CC1 [Example 25]
92	8	49	4	1.3	38	Cn1cnnc1C1(F)CCN(c2c(C#N)cc(C(F)(F)F)nc2-c2ccc(F)nc2)CC1 [Example 17]
1820	11	237	14	11.6	3.1	Cn1cnnc1C1(C)CCN(c2c(-c3ccc(F)nc3)ccnc2C#N)CC1 [Example 11]
182	12	38	1	5.9	8.5	CC(C)Oc1cc(-c2nccc(C#N)c2N2CCC(c3nncn3C)CC2)cnc1F [Example 4]
87	2	47	2	54.9	0.5	Cn1cnnc1C1(F)CCN(c2c(C#N)ccnc2-c2cnc3nn(C4(C(F)(F)F)CC4)cc3c2)CC1 [Example 30]
190	8	34	2	2.3	34	Cc1cc(-c2nccc(C#N)c2N2CCC(F)(c3nncn3C)CC2)cnc1F [Example 6]
179	3	21	2	27.6	1.7	Cn1cnnc1C1(F)CCN(c2c(C#N)ccnc2-c2cnc3nn(C4(C)CC(F)(F)C4)cc3c2)CC1 [Example 31]
86	4	8	1	1.7	40	Cc1cc(C#N)c(N2CCC(F)(c3nncn3C)CC2)c(-c2ccc(F)nc2)n1 [Example 16]
65	1	22	1	35	1	Cn1cnnc1C1(F)CCN(c2c(C#N)ccnc2-c2cnc3nc(C(C)(C)C)cn3c2)CC1 [Example 13]
1950	29	342	21			Cn1cnnc1C1(F)CCN(c2c(C#N)ccnc2-c2cncc(C3CC3)c2)CC1 [Example 20]
245	17	60	2	3.5	4.8	Cn1cnnc1C1CCN(c2c(C#N)ccnc2-c2ccc(F)nc2)CC1 [Example 2]

IC50 [1] [nM]	IC50 [2] [nM]	IC50 [3] [nM]	IC50 [4] [nM]	efflux ratio [5]	Papp A→B [5] [×10⁻⁶ cm/s]	Compound
2200		161				Nc1nnc(C2CCN(c3ncccc3-c3ccc(F)nc3)CC2)s1 [Example 1095, reference compound]
53	2	31	2	11.2	2.5	Cn1cnnc1C1(F)CCN(c2c(C#N)ccnc2-c2cnc3nnc(C(C)(C)C)n3c2)CC1 [Example 12]
214	12	27	2	3.3	18	COc1cc(-c2nccc(C#N)c2N2CCC(F)(c3nncn3C)CC2)cnc1F [Example 7]
467	2	29	2	8.4	4.9	Cn1cnnc1C1(C)CCN(c2c(C#N)ccnc2-c2ccc(F)nc2)CC1 [Example 3]
6	1	3	1	12.6	3.5	Cn1cnnc1C1(F)CCN(c2c(C#N)ccnc2-c2cnc3nn(C(C)(C)c4ccc(F)cc4)cc3c2)CC1 [Example 32]
59	1	33	1	14.1	0.9	Cn1cnnc1C1(F)CCN(c2c(C#N)ccnc2-c2cnc3nc(C(F)(F)F)cn3c2)CC1 [Example 15]
1770	31	693	18			Cn1cnnc1C1(F)CCN(c2c(C#N)ccnc2-c2cn[nH]c2)CC1 [Example 24]
436	10	116	11	0.6	41	Cn1cnnc1C1(F)CCN(c2c(C#N)ccnc2-c2cnn3ncccc23)CC1 [Example 14]
2970		868				Cn1cnnc1C1CCN(c2ncccc2-c2cccnc2)CC1 [SEN180, reference compound]
103		7		1.7	45	Cn1cnnc1C1(F)CCN(c2c(C#N)ccnc2-c2cnc(F)c(OCC3CC3)c2)CC1 [Example 26]
1090	26		4	7.8	1.8	Cn1cnnc1C1CCN(c2c(-c3ccc(F)nc3)ccnc2C#N)CC1 [Example 9]
352	8		4	5.6	11	Cn1cnnc1C1(F)CCN(c2c(-c3ccc(F)nc3)ccnc2C#N)CC1 [Example 10]
322	3	22	1			Cn1cc2cc(-c3nccc(C#N)c3N3CCC(F)(c4nncn4C)CC3)cnc2n1 [Example 21]
3240						Nc1ncc(C2CCN(c3ncccc3-c3ccc(F)nc3)CC2)s1 [Example 1094, reference compound]
1660	32	114	6			Cn1cnnc1C1(F)CCN(c2c(C#N)ccnc2-c2cnc(F)c(F)c2)CC1 [Example 23]
180	3	33	2			C=CCOc1cc(-c2nccc(C#N)c2N2CCC(F)(c3nncn3C)CC2)cnc1F [Example 28]

Compound	IC50 [1] [nM]	IC50 [2] [nM]	IC50 [3] [nM]	IC50 [4] [nM]	efflux ratio [5]	Papp A→B [5] [×10⁻⁶ cm/s]
Cn1cnnc1C1CCN(c2ncccc2-c2ccc(F)nc2)CC1 [SEN177, reference compound]	1360		214			
Cn1cnnc1C1(F)CCN(c2c(C#N)ccnc2-c2ccc(F)nc2)CC1 [Example 1]	168		51			28
Cn1cnnc1C1(F)CCN(c2c(C#N)ccnc2-c2cnc3nn(C(C)(C)C)cc3c2)CC1 [Example 8]	25		22			1.3
